In patent publication US20050009840A1 (SUGEN, INC., priority 2003, published 2005):

biological target: T1, HGFR (Homo sapiens, UniProt P08581); assay: HGFR continuous-coupled spectrophotometric assay; type: biochemical; conditions: at 1 pM; Table 6, library procedure 41; read-out: % Inhibition (percent c-MET inhibition)
T1 construct: purchased Upstate 14-526
T1 sequence (P08581 974-1390 limits assumed): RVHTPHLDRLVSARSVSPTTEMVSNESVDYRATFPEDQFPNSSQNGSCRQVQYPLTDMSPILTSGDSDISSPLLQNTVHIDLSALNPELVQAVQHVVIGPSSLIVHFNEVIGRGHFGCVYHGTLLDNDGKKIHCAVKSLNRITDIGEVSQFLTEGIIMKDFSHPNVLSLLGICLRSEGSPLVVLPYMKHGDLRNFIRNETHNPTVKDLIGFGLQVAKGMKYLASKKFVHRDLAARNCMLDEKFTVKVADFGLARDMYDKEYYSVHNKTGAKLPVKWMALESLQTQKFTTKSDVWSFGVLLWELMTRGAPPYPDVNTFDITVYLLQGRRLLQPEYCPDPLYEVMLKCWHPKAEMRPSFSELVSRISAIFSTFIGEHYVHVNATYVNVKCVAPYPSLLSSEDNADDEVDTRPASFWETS

Row | Compound | inhibition at 1 pM
1 | Nc1ncc(C(=O)NCc2ccccc2OC(F)(F)F)cc1OCc1c(Cl)cccc1Cl [Example L-200] | 31%
2 | CC(C)NC(=O)CN1CCN(C(=O)c2cnc(N)c(OCc3c(Cl)cccc3Cl)c2)CC1 [Example L-201] | 30%
3 | Nc1ncc(C(=O)N2CCN(CCOCCO)CC2)cc1OCc1c(Cl)cccc1Cl [Example L-202] | 33%
4 | CCN(CC)C(=O)C1CCCN(C(=O)c2cnc(N)c(OCc3c(Cl)cccc3Cl)c2)C1 [Example L-203] | 33%
5 | Nc1ncc(C(=O)N2CCN(CCO)CC2)cc1OCc1c(Cl)cccc1Cl [Example L-204] | 51%
6 | CN1CCN(C(=O)c2cnc(N)c(OCc3c(Cl)cccc3Cl)c2)CC1 [Example L-205] | 32%
7 | Nc1ncc(C(=O)N2CCN(CC(=O)N3CCCC3)CC2)cc1OCc1c(Cl)cccc1Cl [Example L-206] | 32%
8 | Nc1ncc(C(=O)N2CCCCC2CCO)cc1OCc1c(Cl)cccc1Cl [Example L-207] | 33%
9 | COc1ccc(C(NC(=O)c2cnc(N)c(OCc3c(Cl)cccc3Cl)c2)C2CC2)cc1 [Example L-208] | 27%
10 | Nc1ncc(C(=O)N2CCN(CCCO)CC2)cc1OCc1c(Cl)cccc1Cl [Example L-209] | 31%
11 | CC(C)(CO)CNC(=O)c1cnc(N)c(OCc2c(Cl)cccc2Cl)c1 [Example L-210] | 39%
12 | Nc1ncc(C(=O)N2CCN(CC(=O)N3CCOCC3)CC2)cc1OCc1c(Cl)cccc1Cl [Example L-211] | 31%
13 | Nc1ncc(C(=O)NCCc2c[nH]c3ccc(Cl)cc23)cc1OCc1c(Cl)cccc1Cl [Example L-212] | 36%
14 | CC(=O)N(C)C1CCN(C(=O)c2cnc(N)c(OCc3c(Cl)cccc3Cl)c2)C1 [Example L-213] | 31%
15 | CC(O)CNC(=O)c1cnc(N)c(OCc2c(Cl)cccc2Cl)c1 [Example L-214] | 49%
16 | Cc1cnc(CNC(=O)c2cnc(N)c(OCc3c(Cl)cccc3Cl)c2)cn1 [Example L-215] | 33%
17 | NC(=O)N1CCN(C(=O)c2cnc(N)c(OCc3c(Cl)cccc3Cl)c2)CC1 [Example L-216] | 29%
18 | Nc1ncc(C(=O)NCCCN2CCCC2=O)cc1OCc1c(Cl)cccc1Cl [Example L-217] | 34%
19 | CC(CCCC(C)(C)O)NC(=O)c1cnc(N)c(OCc2c(Cl)cccc2Cl)c1 [Example L-218] | 35%
20 | Nc1ncc(C(=O)NCCc2ccc(O)cc2)cc1OCc1c(Cl)cccc1Cl [Example L-219] | 34%
21 | Nc1ncc(C(=O)NCc2ccc(F)cc2)cc1OCc1c(Cl)cccc1Cl [Example L-220] | 32%
22 | CN(C)CCNC(=O)c1cnc(N)c(OCc2c(Cl)cccc2Cl)c1 [Example L-221] | 29%
23 | CC(C)CCNC(=O)c1cnc(N)c(OCc2c(Cl)cccc2Cl)c1 [Example L-222] | 26%
24 | Nc1ncc(C(=O)NCCc2c[nH]c3ccc(O)cc23)cc1OCc1c(Cl)cccc1Cl [Example L-223] | 29%
25 | Nc1ncc(C(=O)NCC(F)(F)F)cc1OCc1c(Cl)cccc1Cl [Example L-224] | 30%
26 | CN1CCC(N(C)C(=O)c2cnc(N)c(OCc3c(Cl)cccc3Cl)c2)C1 [Example L-225] | 33%

Row | Compound | inhibition at 1 pM
27 | Nc1ncc(C(=O)NCc2ccc(OC(F)(F)F)cc2)cc1OCc1c(Cl)cccc1Cl [Example L-226] | 24%
28 | Nc1ncc(C(=O)N2CCC(O)C2)cc1OCc1c(Cl)cccc1Cl [Example L-227] | 83%
29 | Nc1ncc(C(=O)NC[C@H]2CCCC[C@H]2O)cc1OCc1c(Cl)cccc1Cl [Example L-228] | 24%
30 | Nc1ncc(C(=O)N[C@@H]2CCCC[C@H]2CO)cc1OCc1c(Cl)cccc1Cl [Example L-229] | 24%
31 | Nc1ncc(C(=O)N[C@@H]2c3ccccc3C[C@@H]2O)cc1OCc1c(Cl)cccc1Cl [Example L-230] | 23%
32 | Nc1ncc(C(=O)N2CCC(O)(Cc3ccccc3)CC2)cc1OCc1c(Cl)cccc1Cl [Example L-231] | 62%
33 | COc1cc(CCNC(=O)c2cnc(N)c(OCc3c(Cl)cccc3Cl)c2)ccc1O [Example L-233] | 32%
34 | Nc1ncc(C(=O)NCC2COc3ccccc3O2)cc1OCc1c(Cl)cccc1Cl [Example L-234] | 34%
35 | CC(NC(=O)c1cnc(N)c(OCc2c(Cl)cccc2Cl)c1)c1ccc(O)cc1 [Example L-235] | 36%
36 | Nc1ncc(C(=O)N2CCCC(O)C2)cc1OCc1c(Cl)cccc1Cl [Example L-236] | 33%
37 | CN(CC#N)C(=O)c1cnc(N)c(OCc2c(Cl)cccc2Cl)c1 [Example L-237] | 30%
38 | CC(O)CCNC(=O)c1cnc(N)c(OCc2c(Cl)cccc2Cl)c1 [Example L-238] | 35%
39 | Nc1ncc(C(=O)NCCO)cc1OCc1c(Cl)cccc1Cl [Example L-239] | 34%
40 | Nc1ncc(C(=O)NCCc2ccncc2)cc1OCc1c(Cl)cccc1Cl [Example L-240] | 30%
41 | CCCC(CO)NC(=O)c1cnc(N)c(OCc2c(Cl)cccc2Cl)c1 [Example L-241] | 30%
42 | Nc1ncc(C(=O)NCCOc2ccccc2)cc1OCc1c(Cl)cccc1Cl [Example L-242] | 66%
43 | C[C@@H]1CN(C(=O)c2cnc(N)c(OCc3c(Cl)cccc3Cl)c2)C[C@H](C)O1 [Example L-243] | 32%
44 | CN(C)C1CCN(C(=O)c2cnc(N)c(OCc3c(Cl)cccc3Cl)c2)C1 [Example L-244] | 33%
45 | Nc1ncc(C(=O)NCc2ccc(F)cc2F)cc1OCc1c(Cl)cccc1Cl [Example L-245] | 33%
46 | CN(CCC(O)c1ccccc1)C(=O)c1cnc(N)c(OCc2c(Cl)cccc2Cl)c1 [Example L-246] | 28%
47 | COc1cc(CCNC(=O)c2cnc(N)c(OCc3c(Cl)cccc3Cl)c2)cc(OC)c1O [Example L-247] | 25%
48 | COCCN1CCN(C(=O)c2cnc(N)c(OCc3c(Cl)cccc3Cl)c2)CC1 [Example L-248] | 27%
49 | Nc1ncc(C(=O)NCc2cccc(OC(F)F)c2)cc1OCc1c(Cl)cccc1Cl [Example L-249] | 32%
50 | Nc1ncc(C(=O)NCc2ccc(F)cc2Cl)cc1OCc1c(Cl)cccc1Cl [Example L-250] | 37%
51 | Nc1ncc(C(=O)NCC(O)c2ccc(O)cc2)cc1OCc1c(Cl)cccc1Cl [Example L-251] | 29%
52 | Nc1ncc(C(=O)N2CCC(C(=O)c3ccccc3)CC2)cc1OCc1c(Cl)cccc1Cl [Example L-252] | 32%

Row | Compound | inhibition at 1 pM
53 | NC(=O)CCNC(=O)c1cnc(N)c(OCc2c(Cl)cccc2Cl)c1 [Example L-253] | 28%
54 | CC(CN(C)C)NC(=O)c1cnc(N)c(OCc2c(Cl)cccc2Cl)c1 [Example L-254] | 45%
55 | CCCOCCNC(=O)c1cnc(N)c(OCc2c(Cl)cccc2Cl)c1 [Example L-255] | 45%
56 | CC(C)OCCNC(=O)c1cnc(N)c(OCc2c(Cl)cccc2Cl)c1 [Example L-256] | 46%
57 | Nc1ncc(C(=O)N2CCC(CO)CC2)cc1OCc1c(Cl)cccc1Cl [Example L-257] | 43%
58 | Nc1ncc(C(=O)N2CCC(CCO)CC2)cc1OCc1c(Cl)cccc1Cl [Example L-258] | 45%
59 | CN(CC(N)=O)C(=O)c1cnc(N)c(OCc2c(Cl)cccc2Cl)c1 [Example L-259] | 39%
60 | CC1CCC(=O)C(NC(=O)c2cnc(N)c(OCc3c(Cl)cccc3Cl)c2)C1 [Example L-260] | 40%
61 | Nc1ncc(C(=O)N2CCN(CCCN3CCOCC3)CC2)cc1OCc1c(Cl)cccc1Cl [Example L-261] | 40%
62 | CN(C)C(=O)CN1CCN(C(=O)c2cnc(N)c(OCc3c(Cl)cccc3Cl)c2)CC1 [Example L-262] | 42%
63 | Nc1ncc(C(=O)NCCN2CCN(Cc3ccccc3)CC2)cc1OCc1c(Cl)cccc1Cl [Example L-263] | 36%
64 | Nc1ncc(C(=O)NC[C@H]2CC[C@H](c3nc4ccccc4[nH]3)CC2)cc1OCc1c(Cl)cccc1Cl [Example L-264] | 38%
65 | Nc1ncc(C(=O)NCc2ccc(C(F)(F)F)nc2)cc1OCc1c(Cl)cccc1Cl [Example L-265] | 17%
66 | CN(C)C(=O)c1cnc(N)c(OCc2c(Cl)cccc2Cl)c1 [Example L-266] | 10%
67 | Nc1ncc(C(=O)N2CCN(c3ccc(Br)cn3)CC2)cc1OCc1c(Cl)cccc1Cl [Example L-267] | 5%
68 | Cc1ccc(N2CCN(CCCCNC(=O)c3cnc(N)c(OCc4c(Cl)cccc4Cl)c3)CC2)cc1 [Example L-268] | 15%
69 | Nc1ncc(C(=O)N2CCS(=O)(=O)CC2)cc1OCc1c(Cl)cccc1Cl [Example L-269] | 10%
70 | C[C@@H]1CCC[C@H](C)N1CCNC(=O)c1cnc(N)c(OCc2c(Cl)cccc2Cl)c1 [Example L-270] | 2%
71 | Nc1ncc(C(=O)N[C@@H]2CCC[C@H]2OCc2ccccc2)cc1OCc1c(Cl)cccc1Cl [Example L-271] | 16%
72 | Nc1ncc(C(=O)NC[C@]2(O)CC[C@H](c3ccccc3)CC2)cc1OCc1c(Cl)cccc1Cl [Example L-272] | 15%
73 | Nc1ncc(C(=O)NCCc2cccc(O)c2)cc1OCc1c(Cl)cccc1Cl [Example L-273] | 17%
74 | N#CCCN1CCN(C(=O)c2cnc(N)c(OCc3c(Cl)cccc3Cl)c2)CC1 [Example L-274] | 19%
75 | Nc1ncc(C(=O)NCc2cc3cc[nH]c3cn2)cc1OCc1c(Cl)cccc1Cl [Example L-275] | 28%
76 | Nc1ncc(C(=O)NCC(O)CN2CCC(Cc3ccccc3)CC2)cc1OCc1c(Cl)cccc1Cl [Example L-276] | 32%
77 | Nc1ncc(C(=O)N2CCCN(Cc3ccc(F)cc3)CC2)cc1OCc1c(Cl)cccc1Cl [Example L-277] | 26%
78 | Cc1ccc(F)c(CNC(=O)c2cnc(N)c(OCc3c(Cl)cccc3Cl)c2)c1F [Example L-278] | 31%

same assay, conditions: read-out: % Inhibition (percent c-MET inhibition)

Row | Compound | inhibition at 1 pM
79 | Nc1ncc(C(=O)N2CCC(=O)CC2)cc1OCc1c(Cl)cccc1Cl [Example L-232] | 44%
